One series has as its target Acetylcholinesterase (Electrophorus electricus, UniProt O42275). The series can be described thus: Inhibition of Electric eel AChE using acetylthiocholine iodide as substrate preincubated for 5 mins followed by substrate addition measured after 2 mins by Ellman's method.
The next series addresses Cholinesterase (Equus caballus, UniProt P81908). The series can be described thus: Inhibition of equine serum BuChE using butyrylthiocholine iodide as substrate preincubated for 5 mins followed by substrate addition measured after 2 mins by Ellman's method. The series is classed as ADME.
Series [1] has as its target T1, Amyloid-beta precursor protein (Homo sapiens, UniProt P05067). Put plainly: Inhibition of HFIP-pretreated amyloid beta (1 to 42) (unknown origin) self-induced aggregation at 25 uM after 48 hrs by thioflavin-T fluorescence assay relative to control.
The target of series [2] is T1, Amyloid-beta precursor protein. Put plainly: Inhibition of HFIP-pretreated amyloid beta (1 to 42) (unknown origin) self-induced aggregation after 48 hrs by thioflavin-T fluorescence assay.
Series [3] is described as follows: Antioxidant activity assessed as trolox equivalent of AAPH radical scavenging activity at 1 to 25 uM preincubated for 15 mins followed by AAPH addition measured every min for 80 mins by ORAC-FL assay. The series is classed as functional.
The nature of series [4]: Cytotoxicity against human SH-SY5Y cells assessed as reduction in cell viability after 48 hrs by MTT assay. The class given is toxicity, cell-based.
A short description of series [5]: Cytotoxicity against human SH-SY5Y cells assessed as cell viability at 1 uM after 48 hrs by MTT assay relative to control. The class given is toxicity, cell-based. The settings on record: read-out: Activity.
Series [6] is described as follows: Cytotoxicity against human SH-SY5Y cells assessed as cell viability at 5 uM after 48 hrs by MTT assay relative to control. The series is classed as toxicity, cell-based. To be noted: read-out: Activity.
Series [7] is described as follows: Cytotoxicity against human SH-SY5Y cells assessed as cell viability at 10 uM after 48 hrs by MTT assay relative to control. The class given is toxicity, cell-based. To be noted: read-out: Activity.
Series [8] is described as follows: Cytotoxicity against human SH-SY5Y cells assessed as cell viability at 25 uM after 48 hrs by MTT assay relative to control. The series is classed as toxicity, cell-based. To be noted: read-out: Activity.
The nature of series [9]: Cytotoxicity against human SH-SY5Y cells assessed as cell viability at 50 uM after 48 hrs by MTT assay relative to control. The class given is toxicity, cell-based. To be noted: read-out: Activity.
The nature of series [10]: Cytotoxicity against human SH-SY5Y cells assessed as cell viability at 75 uM after 48 hrs by MTT assay relative to control. The series is classed as toxicity, cell-based. The settings on record: read-out: Activity.
A short description of series [11]: Cytotoxicity against human SH-SY5Y cells assessed as cell viability at 100 uM after 48 hrs by MTT assay relative to control. The class given is toxicity, cell-based. To be noted: read-out: Activity.
Series [12] concerns SH-SY5Y. Put plainly: Neuroprotective activity against H2O2-induced oxidative stress in human SH-SY5Y cells assessed as inhibition of ROS accumulation after 24 hrs by DCFH-DA probe based fluorescence assay. The class given is functional, cell-based.
Series [13] in a line: Effect on basal ROS level in human SH-SY5Y cells at 5 to 20 uM after 24 hrs by DCFH-DA probe based fluorescence assay. The class given is ADME, cell-based.
Series [14] deals with SH-SY5Y. Put plainly: Neuroprotective activity against H2O2-induced oxidative stress in human SH-SY5Y cells assessed as increase in cell viability at 10 uM after 24 hrs by MTT assay. The class given is functional, cell-based.
Series [15] deals with SH-SY5Y. Put plainly: Neuroprotective activity against H2O2-induced morphological changes in human SH-SY5Y cells assessed as decrease in cell rounding at 20 uM after 24 hrs by phase contrast microscopic method. The series is classed as functional, cell-based.
The test system of series [16] is SH-SY5Y. Put plainly: Neuroprotective activity against H2O2-induced morphological changes in human SH-SY5Y cells assessed as decrease in cell vacuolation at 20 uM after 24 hrs by phase contrast microscopic method. The class given is functional, cell-based.
In series [17] the test system is SH-SY5Y. The series can be described thus: Neuroprotective activity against H2O2-induced morphological changes in human SH-SY5Y cells assessed as decrease in floated appearance at 20 uM after 24 hrs by phase contrast microscopic method. The class given is functional, cell-based.
Series [18] relates to SH-SY5Y. The series can be described thus: Neuroprotective activity against amyloid beta (1 to 42)-induced neurodegeneration in human SH-SY5Y cells assessed as increase in cell viability at 20 uM after 48 hrs by MTT assay. The series is classed as functional, cell-based.
The subject of series [19] is SH-SY5Y. Put plainly: Neuroprotective activity against amyloid beta (1 to 42)-induced morphological changes in human SH-SY5Y cells assessed as decrease in shrinked cell body at 20 uM after 48 hrs by phase contrast microscopic method. The class given is functional, cell-based.
For series [20], the system named is SH-SY5Y. Put plainly: Neuroprotective activity against amyloid beta (1 to 42)-induced morphological changes in human SH-SY5Y cells assessed as decrease in fading synapses at 20 uM after 48 hrs by phase contrast microscopic method. The class given is functional, cell-based.
Series [21] concerns SH-SY5Y. Put plainly: Neuroprotective activity against amyloid beta (1 to 42)-induced morphological changes in human SH-SY5Y cells assessed as decrease in loss of adherence at 20 uM after 48 hrs by phase contrast microscopic method. The class given is functional, cell-based.
For series [22], the system named is SH-SY5Y. The series can be described thus: Neuroprotective activity against amyloid beta (1 to 42)-induced morphological changes in human SH-SY5Y cells assessed as decrease in fragmented or rounded floating cells at 20 uM after 48 hrs by phase contrast microscopic method. The series is classed as functional, cell-based.

Activity calls are given as the source filed them. The calls are words filed in the database; no cut-off is given here.

T1 sequence (P05067 whole entry): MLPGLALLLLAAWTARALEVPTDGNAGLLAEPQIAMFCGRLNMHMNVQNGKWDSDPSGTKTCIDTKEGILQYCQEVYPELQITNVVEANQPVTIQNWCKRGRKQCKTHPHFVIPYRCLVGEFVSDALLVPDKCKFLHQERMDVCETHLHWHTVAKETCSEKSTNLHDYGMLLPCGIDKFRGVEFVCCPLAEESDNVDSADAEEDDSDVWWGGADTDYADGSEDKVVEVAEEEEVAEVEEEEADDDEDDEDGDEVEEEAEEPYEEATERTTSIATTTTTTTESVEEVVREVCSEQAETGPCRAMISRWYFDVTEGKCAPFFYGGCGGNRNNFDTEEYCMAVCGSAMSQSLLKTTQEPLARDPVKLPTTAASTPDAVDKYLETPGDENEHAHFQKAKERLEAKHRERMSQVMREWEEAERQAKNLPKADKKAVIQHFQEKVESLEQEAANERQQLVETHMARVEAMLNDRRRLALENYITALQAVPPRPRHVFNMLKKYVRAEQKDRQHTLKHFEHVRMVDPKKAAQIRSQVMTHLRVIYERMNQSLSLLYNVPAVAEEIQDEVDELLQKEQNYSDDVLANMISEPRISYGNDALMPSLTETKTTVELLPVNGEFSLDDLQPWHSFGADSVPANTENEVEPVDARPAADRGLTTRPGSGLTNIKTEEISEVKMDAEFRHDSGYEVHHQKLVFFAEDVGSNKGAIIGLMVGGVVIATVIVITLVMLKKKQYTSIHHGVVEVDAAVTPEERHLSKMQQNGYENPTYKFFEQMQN
Sequence of Acetylcholinesterase (O42275 whole entry): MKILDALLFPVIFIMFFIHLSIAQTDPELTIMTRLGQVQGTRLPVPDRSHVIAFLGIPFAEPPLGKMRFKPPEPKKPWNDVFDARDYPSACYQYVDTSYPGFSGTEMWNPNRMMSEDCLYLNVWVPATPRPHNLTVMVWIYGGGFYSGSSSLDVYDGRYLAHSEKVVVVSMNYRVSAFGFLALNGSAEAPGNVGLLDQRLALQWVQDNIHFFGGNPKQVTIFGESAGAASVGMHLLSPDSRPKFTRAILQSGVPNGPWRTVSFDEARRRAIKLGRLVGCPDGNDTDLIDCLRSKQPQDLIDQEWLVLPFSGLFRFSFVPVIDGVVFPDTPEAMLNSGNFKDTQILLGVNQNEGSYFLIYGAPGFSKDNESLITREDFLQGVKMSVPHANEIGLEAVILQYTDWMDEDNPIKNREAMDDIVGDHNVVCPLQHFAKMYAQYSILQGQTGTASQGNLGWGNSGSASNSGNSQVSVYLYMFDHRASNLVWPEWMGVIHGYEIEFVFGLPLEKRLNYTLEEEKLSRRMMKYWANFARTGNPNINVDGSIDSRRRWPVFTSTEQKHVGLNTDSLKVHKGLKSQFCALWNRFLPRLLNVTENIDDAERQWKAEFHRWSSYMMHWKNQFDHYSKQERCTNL
Sequence of Cholinesterase (P81908 whole entry): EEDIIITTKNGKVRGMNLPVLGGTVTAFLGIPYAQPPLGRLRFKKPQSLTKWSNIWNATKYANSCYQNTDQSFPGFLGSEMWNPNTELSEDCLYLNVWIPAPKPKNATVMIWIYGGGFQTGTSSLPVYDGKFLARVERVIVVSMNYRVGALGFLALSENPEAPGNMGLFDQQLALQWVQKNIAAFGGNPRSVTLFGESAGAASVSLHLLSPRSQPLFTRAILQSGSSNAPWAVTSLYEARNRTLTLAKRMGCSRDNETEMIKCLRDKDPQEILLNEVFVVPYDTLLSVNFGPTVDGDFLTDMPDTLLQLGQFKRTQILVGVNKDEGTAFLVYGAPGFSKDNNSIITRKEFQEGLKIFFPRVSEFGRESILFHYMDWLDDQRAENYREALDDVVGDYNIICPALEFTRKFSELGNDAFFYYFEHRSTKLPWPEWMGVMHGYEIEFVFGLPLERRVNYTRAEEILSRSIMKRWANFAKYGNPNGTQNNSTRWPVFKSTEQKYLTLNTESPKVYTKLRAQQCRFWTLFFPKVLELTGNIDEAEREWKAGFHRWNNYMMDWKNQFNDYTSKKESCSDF

With `COc1cc2c(cc1OC)C(=O)/C(=C/c1ccc(N3CCN(C(=O)c4ccoc4)CC3)cc1)C2`, the half-maximal inhibitory concentration (IC50) on Acetylcholinesterase is 34 nM; at Cholinesterase it was 1970 nM; in [2] it was 10900 nM. The inhibition is 80.4% in series [1] and “Dose-dependent effect” in the series on SH-SY5Y [12]. For the same molecule, in [3], the Activity (umolequiv/umol) was 3.89. The Activity entry in [4] is recorded as “Dose-dependent effect”; in [13] it was “Non-Toxic”. Besides, the viability at 48 h, 1 µM in series [5] came to 96%. The viability at 48 h, 5 µM in series [6] was determined as 94.4%. In addition, the viability at 48 h, 10 µM in series [7] stood at 92.3%. For the same molecule, the viability at 48 h, 25 µM in [8] worked out at 90.1%. Also, in series [9], the viability at 48 h, 50 µM was 86.9%. The viability at 48 h, 75 µM in series [10] amounted to 83.7%. Also, in [11], the viability at 48 h, 100 µM turned out to be 81.1%. Further, the result with SH-SY5Y [14], in the series on SH-SY5Y [15], in the series on SH-SY5Y [16], in the series with SH-SY5Y [17], in the series with SH-SY5Y [18] and in the series with SH-SY5Y [19] was Active. Besides, the outcome with SH-SY5Y [20], in the series with SH-SY5Y [21] and with SH-SY5Y [22] was Active.

(Values after ChEMBL document CHEMBL3877279, “Design, synthesis, in-silico and biological evaluation of novel donepezil derivatives as multi-target-directed ligands for the treatment of Alzheimer's disease” (Eur J Med Chem, 2017).)
